According to US9790228B2, “Heterocyclic kinase inhibitors” (Intellikine LLC, priority 2008, dated 2017):
Where two headings read alike, the source gives them in different places.

Columns and labels:
Assay type in all cases: biochemical
p110α/p85α = p110α/p85α (Homo sapiens (Human), UniProt P42336); experiment: PI3K α inhibition assay (TLC lipid kinase or HTRF)
Protocol: (§1) Class I PI3-Ks can be either purchased (p110α/p85α, p110β/p85α, p110δ/p85α from Upstate, and p110γ from Sigma) or expressed as previously described (Knight et al., 2004). IC50 values are measured using either a standard TLC assay for lipid kinase activity (described below) or a high-throughput membrane capture assay. Kinase reactions are performed by preparing a reaction mixture containing kinase, inhibitor (2% DMSO final concentration), buffer (25 mM HEPES, pH 7.4, 10 mM MgCl2), and freshly sonicated phosphatidylinositol (100 μg/ml). Reactions are initiated by the addition of ATP containing 10 μCi of γ-32P-ATP to a final concentration 10 or 100 μM and allowed to proceed for 5 minutes at room temperature. For TLC analysis, reactions are then terminated by the addition of […] 1N HCl followed by 160 μl CHCl3:MeOH (1:1). The biphasic mixture is vortexed, briefly centrifuged, and the organic phase is transferred to a new tube using a gel loading pipette tip precoated with CHCl3. This extract is spotted on TLC plates and developed for 3-4 hours in a 65:35 solution of n-propanol:1M acetic acid. The TLC plates are then dried, exposed to a phosphorimager screen (Storm, Amersham), and quantitated. For each compound, kinase activity is measured at 10-12 inhibitor concentrations representing two-fold dilutions from the highest concentration tested (typically, 200 μM).
(§2) Other commercial kits or systems for assaying PI3-K activities are available. The commercially available kits or systems can be used to screen for inhibitors and/or agonists of PI3-Ks including but not limited to PI 3-Kinase α, β, δ, and γ. Anr exemplary system is PI3-Kinase (human) HTRF™ Assay from Upstate. […] Briefly, the assay is a time resolved FRET assay that indirectly measures PIP3 product formed by the activity of a PI3-K. The kinase reaction is performed in a microtitre plate (e.g., a 384 well microtitre plate). The total reaction volume is approximately 20 ul per well. In the first step, each well receives 2 ul of test compound in 20% dimethylsulphoxide resulting in a 2% DMSO final concentration. Next, approximately 14.5 ul of a kinase/PIP2 mixture (diluted in 1× reaction buffer) is added per well for a final concentration of 0.25-0.3 ug/ml kinase and 10 uM PIP2. The plate is sealed and incubated for 15 minutes at room temperature. To start the reaction, 3.5 ul of ATP (diluted in 1× reaction buffer) is added per well for a final concentration of 10 uM ATP. The plate is sealed and incubated for 1 hour at room temperature. The reaction is stopped by adding 5 ul of Stop Solution per well and then 5 ul of Detection Mix is added per well. The plate is sealed, incubated for 1 hour at room temperature, and then read on an appropriate plate reader. Data is analyzed and IC50s are generated using GraphPad Prism 5.

p110δ/p85α = p110δ/p85α (Homo sapiens (Human), UniProt O00329); experiment: PI3K δ inhibition assay (TLC lipid kinase or HTRF)
Chain of p110δ/p85α (O00329 whole entry): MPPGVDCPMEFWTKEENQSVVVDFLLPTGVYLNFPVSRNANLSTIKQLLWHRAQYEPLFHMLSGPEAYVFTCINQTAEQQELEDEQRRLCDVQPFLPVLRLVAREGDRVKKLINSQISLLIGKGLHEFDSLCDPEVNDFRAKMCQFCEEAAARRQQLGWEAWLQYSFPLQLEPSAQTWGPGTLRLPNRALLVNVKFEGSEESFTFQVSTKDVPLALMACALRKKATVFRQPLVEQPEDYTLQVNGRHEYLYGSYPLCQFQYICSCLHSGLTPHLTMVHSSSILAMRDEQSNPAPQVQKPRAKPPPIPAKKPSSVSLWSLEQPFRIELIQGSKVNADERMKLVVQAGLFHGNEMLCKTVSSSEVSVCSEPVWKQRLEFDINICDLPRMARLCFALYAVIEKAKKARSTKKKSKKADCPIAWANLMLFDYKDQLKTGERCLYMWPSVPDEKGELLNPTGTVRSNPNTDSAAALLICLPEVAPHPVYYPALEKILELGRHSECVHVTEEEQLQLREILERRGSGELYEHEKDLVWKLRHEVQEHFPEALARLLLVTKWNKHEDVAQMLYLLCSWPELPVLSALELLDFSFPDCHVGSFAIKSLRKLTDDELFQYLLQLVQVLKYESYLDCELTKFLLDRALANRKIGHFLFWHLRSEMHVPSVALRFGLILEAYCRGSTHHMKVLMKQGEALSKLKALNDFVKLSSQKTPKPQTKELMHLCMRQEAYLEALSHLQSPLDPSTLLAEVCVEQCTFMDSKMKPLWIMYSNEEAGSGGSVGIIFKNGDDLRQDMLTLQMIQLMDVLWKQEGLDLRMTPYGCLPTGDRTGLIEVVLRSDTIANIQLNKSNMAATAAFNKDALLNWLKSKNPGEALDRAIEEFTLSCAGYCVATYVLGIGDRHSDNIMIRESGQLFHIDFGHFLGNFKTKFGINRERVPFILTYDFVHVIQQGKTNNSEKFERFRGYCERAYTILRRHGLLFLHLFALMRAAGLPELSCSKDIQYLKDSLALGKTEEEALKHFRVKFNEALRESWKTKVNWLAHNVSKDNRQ
Chain of p110δ/p85α (P27986 whole entry partner): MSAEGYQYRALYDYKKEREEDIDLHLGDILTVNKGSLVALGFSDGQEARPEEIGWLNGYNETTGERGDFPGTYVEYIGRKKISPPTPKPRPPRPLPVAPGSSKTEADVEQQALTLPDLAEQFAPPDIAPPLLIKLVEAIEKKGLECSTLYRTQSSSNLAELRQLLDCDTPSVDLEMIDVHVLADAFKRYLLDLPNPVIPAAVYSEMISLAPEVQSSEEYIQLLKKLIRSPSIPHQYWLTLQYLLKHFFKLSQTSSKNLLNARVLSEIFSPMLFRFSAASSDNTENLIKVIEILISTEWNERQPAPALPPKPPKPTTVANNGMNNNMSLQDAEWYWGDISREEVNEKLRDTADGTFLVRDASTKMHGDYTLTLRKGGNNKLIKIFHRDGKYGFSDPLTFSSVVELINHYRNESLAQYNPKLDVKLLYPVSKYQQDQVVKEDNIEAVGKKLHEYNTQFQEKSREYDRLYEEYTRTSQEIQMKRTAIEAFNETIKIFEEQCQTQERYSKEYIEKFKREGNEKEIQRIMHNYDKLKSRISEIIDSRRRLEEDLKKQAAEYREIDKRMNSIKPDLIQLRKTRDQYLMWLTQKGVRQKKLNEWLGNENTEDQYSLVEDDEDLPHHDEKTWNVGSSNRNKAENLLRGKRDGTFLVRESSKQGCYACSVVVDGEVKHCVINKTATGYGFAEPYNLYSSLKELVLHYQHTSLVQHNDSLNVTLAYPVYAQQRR
Protocol: as §1, §2

p110β/p85α = p110β/p85α (Homo sapiens, UniProt P42338); experiment: PI3K β inhibition assay (TLC lipid kinase or HTRF)
Chain of p110β/p85α (P42338 whole entry, looked up): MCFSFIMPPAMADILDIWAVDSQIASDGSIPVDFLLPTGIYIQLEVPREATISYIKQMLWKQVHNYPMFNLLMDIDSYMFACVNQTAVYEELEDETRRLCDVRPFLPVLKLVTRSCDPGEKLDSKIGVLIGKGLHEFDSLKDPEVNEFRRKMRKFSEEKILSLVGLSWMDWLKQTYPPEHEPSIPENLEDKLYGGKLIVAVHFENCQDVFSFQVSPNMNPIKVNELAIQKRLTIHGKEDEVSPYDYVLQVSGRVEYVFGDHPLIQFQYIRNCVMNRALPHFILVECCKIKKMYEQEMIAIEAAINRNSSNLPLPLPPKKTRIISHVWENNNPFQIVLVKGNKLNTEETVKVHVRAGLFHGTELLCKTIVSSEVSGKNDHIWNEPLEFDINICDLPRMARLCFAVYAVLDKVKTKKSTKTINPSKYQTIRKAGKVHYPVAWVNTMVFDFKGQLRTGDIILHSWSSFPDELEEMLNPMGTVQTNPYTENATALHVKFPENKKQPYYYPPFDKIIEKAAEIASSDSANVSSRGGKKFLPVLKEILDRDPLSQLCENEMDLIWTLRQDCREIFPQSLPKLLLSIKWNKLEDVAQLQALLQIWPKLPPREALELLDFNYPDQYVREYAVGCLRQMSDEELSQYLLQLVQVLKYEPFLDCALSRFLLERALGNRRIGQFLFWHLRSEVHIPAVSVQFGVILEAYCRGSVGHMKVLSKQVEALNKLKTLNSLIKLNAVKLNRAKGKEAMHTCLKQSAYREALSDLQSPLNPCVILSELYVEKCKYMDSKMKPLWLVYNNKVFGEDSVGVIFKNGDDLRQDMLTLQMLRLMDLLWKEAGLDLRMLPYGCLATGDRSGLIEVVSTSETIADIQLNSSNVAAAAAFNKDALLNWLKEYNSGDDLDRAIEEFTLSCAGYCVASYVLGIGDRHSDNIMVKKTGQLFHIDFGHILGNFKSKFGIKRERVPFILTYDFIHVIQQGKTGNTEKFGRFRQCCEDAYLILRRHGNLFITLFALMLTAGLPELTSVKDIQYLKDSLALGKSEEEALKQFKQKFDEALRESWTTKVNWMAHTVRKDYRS
Protocol: as §1, §2

p110γ = p110γ (Homo sapiens (Human), UniProt P48736); experiment: PI3K γ inhibition assay (TLC lipid kinase or HTRF)
Chain of p110γ (P48736 whole entry): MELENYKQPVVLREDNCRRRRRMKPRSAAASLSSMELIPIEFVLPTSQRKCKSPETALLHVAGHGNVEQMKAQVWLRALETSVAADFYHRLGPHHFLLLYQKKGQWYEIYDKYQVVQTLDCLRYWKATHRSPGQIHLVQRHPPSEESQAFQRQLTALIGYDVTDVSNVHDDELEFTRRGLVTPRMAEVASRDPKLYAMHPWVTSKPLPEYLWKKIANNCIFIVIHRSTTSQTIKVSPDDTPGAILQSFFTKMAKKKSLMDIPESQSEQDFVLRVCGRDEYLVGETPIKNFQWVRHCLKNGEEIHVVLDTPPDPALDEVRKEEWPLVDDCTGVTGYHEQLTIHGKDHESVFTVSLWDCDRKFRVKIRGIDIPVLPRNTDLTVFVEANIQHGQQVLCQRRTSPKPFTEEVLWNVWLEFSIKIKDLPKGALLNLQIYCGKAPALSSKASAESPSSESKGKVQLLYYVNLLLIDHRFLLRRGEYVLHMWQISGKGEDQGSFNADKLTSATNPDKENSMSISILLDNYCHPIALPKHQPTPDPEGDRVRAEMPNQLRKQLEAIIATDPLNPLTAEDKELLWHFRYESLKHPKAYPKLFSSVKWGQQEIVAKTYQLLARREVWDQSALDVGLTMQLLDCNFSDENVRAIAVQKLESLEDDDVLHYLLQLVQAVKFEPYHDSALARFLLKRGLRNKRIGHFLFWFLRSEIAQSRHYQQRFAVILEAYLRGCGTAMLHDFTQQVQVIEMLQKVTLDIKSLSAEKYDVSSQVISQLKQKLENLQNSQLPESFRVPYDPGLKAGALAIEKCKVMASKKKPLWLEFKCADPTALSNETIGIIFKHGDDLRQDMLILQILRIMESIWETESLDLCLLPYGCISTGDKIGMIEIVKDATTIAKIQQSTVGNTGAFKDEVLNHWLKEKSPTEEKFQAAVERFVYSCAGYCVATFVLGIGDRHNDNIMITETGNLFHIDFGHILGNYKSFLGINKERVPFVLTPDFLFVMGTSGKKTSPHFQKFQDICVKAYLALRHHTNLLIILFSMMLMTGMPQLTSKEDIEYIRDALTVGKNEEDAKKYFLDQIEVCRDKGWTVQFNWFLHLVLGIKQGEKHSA
Protocol: as §1, §2

Chain of p110α/p85α (P42336 whole entry): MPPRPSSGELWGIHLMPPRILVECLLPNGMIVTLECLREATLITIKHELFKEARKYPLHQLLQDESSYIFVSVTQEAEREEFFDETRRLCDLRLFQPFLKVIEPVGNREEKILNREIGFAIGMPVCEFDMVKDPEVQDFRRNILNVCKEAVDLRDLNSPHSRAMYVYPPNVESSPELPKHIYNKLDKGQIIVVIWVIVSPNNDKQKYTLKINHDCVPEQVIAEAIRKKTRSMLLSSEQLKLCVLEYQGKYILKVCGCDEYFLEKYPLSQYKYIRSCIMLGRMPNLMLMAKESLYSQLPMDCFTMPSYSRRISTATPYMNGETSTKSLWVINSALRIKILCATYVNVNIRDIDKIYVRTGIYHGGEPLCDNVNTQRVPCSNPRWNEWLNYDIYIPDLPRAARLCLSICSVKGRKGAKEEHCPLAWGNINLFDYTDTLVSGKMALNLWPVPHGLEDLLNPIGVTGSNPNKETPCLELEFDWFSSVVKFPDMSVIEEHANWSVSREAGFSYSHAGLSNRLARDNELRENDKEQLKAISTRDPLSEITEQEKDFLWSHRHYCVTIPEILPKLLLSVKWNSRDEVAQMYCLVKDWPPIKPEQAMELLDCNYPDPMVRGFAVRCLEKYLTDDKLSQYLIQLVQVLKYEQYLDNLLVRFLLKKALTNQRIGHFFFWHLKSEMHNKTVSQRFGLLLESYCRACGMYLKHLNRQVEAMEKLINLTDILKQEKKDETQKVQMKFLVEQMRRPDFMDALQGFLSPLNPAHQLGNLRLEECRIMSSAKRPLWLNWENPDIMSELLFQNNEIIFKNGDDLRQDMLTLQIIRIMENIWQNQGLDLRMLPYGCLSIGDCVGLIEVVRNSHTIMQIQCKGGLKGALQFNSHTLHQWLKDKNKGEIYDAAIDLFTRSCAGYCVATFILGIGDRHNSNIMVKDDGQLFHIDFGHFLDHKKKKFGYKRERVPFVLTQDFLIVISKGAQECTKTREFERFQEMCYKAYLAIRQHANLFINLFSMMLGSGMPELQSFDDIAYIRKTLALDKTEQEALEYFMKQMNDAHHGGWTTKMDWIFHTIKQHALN
Chain of p110α/p85α (P27986 whole entry partner): as the sequence (P27986 whole entry partner) above

SMILES | IC50 (p110α/p85α) | IC50 (p110δ/p85α) | IC50 (p110β/p85α; read-out: PI3K β IC50) | IC50 (p110γ) | IC50 (p110β/p85α; PI3K β IC50)
Nc1ncnc2c1c(I)nn2Cc1cc2c(nc1-c1ccccc1F)CCC2 [Compound 100] |  | > 1 µM |  |  | 
Nc1ncnc2c1c(-c1cc(O)cc(F)c1)nn2Cc1cc2ccccc2nc1NC1CCCC1 [Compound 33] |  | 0.1 to 1 µM |  |  | 
Nc1ncnc2c1c(-c1ccccc1O)nn2Cc1cc2ccccc2nc1N1CCCC1 [Compound 21] |  | > 1 µM |  |  | 
CCC(Nc1ncnc2[nH]cnc12)c1cc2ccccc2nc1N1CCN(C)CC1 (stereo not drawn) [Compound 95] | > 1 µM | < 0.1 µM | > 1 µM | > 1 µM | 
NC(=O)c1nn(Cc2cc3ccccc3nc2-c2ccccc2F)c2ncnc(N)c12 [Compound 191] | > 1 µM | 0.1 to 1 µM |  | > 1 µM | > 1 µM
CCc1nc2ccccc2cc1Cn1nc(-c2cccc(O)c2)c2c(N)ncnc21 [Compound 96] | > 1 µM | < 0.1 µM | > 1 µM | 0.1 to 1 µM | 
Nc1ncnc2c1c(-c1cc(O)cc(F)c1)nn2Cc1cc2ccccc2nc1NC1CC1 [Compound 29] | > 1 µM | 0.1 to 1 µM | > 1 µM | > 1 µM | 
Cc1cccc2cc(Cn3nc(-c4cccc(O)c4)c4c(N)ncnc43)c(N3CCOCC3)nc12 [Compound 66] | > 1 µM | < 0.1 µM | 0.1 to 1 µM | < 0.1 µM | 
CCC(c1cc2ccccc2nc1N1CCN(C)CC1)n1cnc2c(N)ncnc21 (stereo not drawn) [Compound 90] | > 1 µM | 0.1 to 1 µM | > 1 µM | > 1 µM | 
Cn1c(=O)c(Cn2nc(-c3cccc(O)c3)c3c(N)ncnc32)cc2ccccc21 [Compound 111] | > 1 µM | 0.1 to 1 µM | > 1 µM | > 1 µM | 
Cc1ccccc1-c1ncccc1Cn1nc(-c2cc(O)cc(F)c2)c2c(N)ncnc21 [Compound 121] |  | > 1 µM |  |  | 
COc1ccccc1-c1nc2ccccc2cc1Cn1nc(-c2cccc(O)c2)c2c(N)ncnc21 [Compound 14] |  | 0.1 to 1 µM |  |  | 
Nc1ncnc2c1c(-c1cc(F)ccc1O)nn2Cc1cc2ccccc2nc1N1CCCC1 [Compound 22] |  | > 1 µM |  |  | 
CC(C)n1c(=O)c(Cn2nc(-c3cccc(O)c3)c3c(N)ncnc32)cc2ccccc21 [Compound 110] | > 1 µM | 0.1 to 1 µM | > 1 µM | > 1 µM | 
CC(c1cc2ccccc2nc1N1CCCC1)n1cnc2c(N)ncnc21 (stereo not drawn) [Compound 35] |  | > 1 µM |  | > 1 µM | 
Nc1ncnc2c1c(-c1cc(O)cc(F)c1)nn2Cc1cc2ccccc2[nH]c1=O [Compound 114] | > 1 µM | < 0.1 µM | > 1 µM | > 1 µM | 

SMILES | IC50 (p110α/p85α) | IC50 (p110δ/p85α) | IC50 (p110β/p85α; read-out: PI3K β IC50) | IC50 (p110γ) | IC50 (p110β/p85α; PI3K β IC50)
Nc1ncnc2c1c(-c1cccnc1)nn2Cc1cc2ccccc2nc1N1CCCC1 [Compound 62] |  | 0.1 to 1 µM |  | 0.1 to 1 µM | 
NC(=O)c1cccc(-c2nn(Cc3cc4ccccc4nc3N3CCCC3)c3ncnc(N)c23)c1 [Compound 28] |  | > 1 µM |  |  | 
C[C@@H](O)C#Cc1nc2ccccc2nc1Cn1nc(C#C[C@@H](C)O)c2c(N)ncnc21 [Compound 103] |  | > 1 µM |  | > 1 µM | 
CCC(c1cc2ccccc2nc1-c1ccccc1)n1cnc2c(N)ncnc21 (stereo not drawn) [Compound 37] |  | > 1 µM |  | > 1 µM | 
C[C@@H](O)C#Cc1nn(Cc2cc3ccccc3nc2N2CCN(C)CC2)c2ncnc(N)c12 [Compound 51] |  | > 1 µM |  |  | 
Cc1ccccc1-c1ncccc1Cn1nc(-c2cccc(O)c2)c2c(N)ncnc21 [Compound 120] |  | > 1 µM |  |  | 
C[C@@H](O)C#Cc1nn(Cc2cc3ccccc3nc2N2CCCC2)c2ncnc(N)c12 [Compound 41] |  | < 0.1 µM |  |  | 
C[C@@H](O)C#Cc1nn(Cc2nc3ccccc3nc2N2CCCC2)c2ncnc(N)c12 [Compound 106] |  | 0.1 to 1 µM |  | > 1 µM | 
Nc1ncnc2c1c(-c1cccc(O)c1)nn2Cc1cc2c(nc1-c1ccccc1F)CCC2 [Compound 102] |  | > 1 µM |  |  | 
Nc1ncnc2c1c(-c1cccc3[nH]ncc13)nn2Cc1cc2ccccc2nc1N1CCCC1 [Compound 58] |  | 0.1 to 1 µM |  | 0.1 to 1 µM | 
COc1ccccc1-c1nc2ccccc2cc1Cn1nc(C#C[C@@H](C)O)c2c(N)ncnc21 [Compound 18] |  | > 1 µM |  |  | 
CC(=O)Nc1nc2ccc(-c3nn(Cc4cc5ccccc5nc4N4CCCC4)c4ncnc(N)c34)cc2s1 [Compound 24] | 0.1 to 1 µM |  |  |  | 
CN1CCN(c2nc3ccccc3cc2Cn2nc(I)c3c(N)ncnc32)CC1 [Compound 44] |  | 0.1 to 1 µM |  | > 1 µM | 
CCC(c1cc2ccccc2nc1N1CCCC1)n1cnc2c(N)ncnc21 (stereo not drawn) [Compound 36] |  | > 1 µM |  | > 1 µM | 
CC(=O)Nc1cccc(-c2nn(Cc3cc4ccccc4nc3N3CCCC3)c3ncnc(N)c23)c1 [Compound 27] |  | > 1 µM |  |  | 
CCC(Nc1ncnc2[nH]cnc12)c1cc2ccccc2nc1N1CCCC1 (stereo not drawn) [Compound 53] |  | 0.1 to 1 µM |  | > 1 µM | 

Second part, led by results:

IC50 (p110α/p85α) | IC50 (p110δ/p85α) | IC50 (p110β/p85α; read-out: PI3K β IC50) | IC50 (p110γ) | SMILES | IC50 (p110β/p85α; PI3K β IC50)
> 1 µM | > 1 µM | > 1 µM |  | Nc1ncnc2c1c(-c1ccnc(O)c1)nn2Cc1cc2ccccc2nc1-c1ccccc1F [Compound 177] | 
 |  | 0.1 to 1 µM |  | CN1CCN(c2nc3ccccc3cc2Cn2nc(-c3cc(O)cc(F)c3)c3c(N)ncnc32)CC1 [Compound 197] | 
< 0.1 µM |  | < 0.1 µM |  | CC(C)N1CCN(c2nc3ccccc3cc2Cn2nc(-c3ccc4nc(N)sc4c3)c3c(N)ncnc32)CC1 [Compound 164] | 
> 1 µM |  | > 1 µM |  | Nc1ncnc2c1c(-c1ccc(O)nc1)nn2Cc1cc2ccccc2nc1-c1ccccc1F [Compound 161] | 
> 1 µM | 0.1 to 1 µM | > 1 µM | > 1 µM | NC(=O)/C=C/c1nn(Cc2cc3ccccc3nc2-c2ccccc2F)c2ncnc(N)c12 [Compound 194] | 
 |  | > 1 µM |  | Nc1ncnc2c1c(-c1cc(O)cc(F)c1)nn2Cc1cc2ccccc2nc1-c1ccccc1 [Compound 149] | 
 | > 1 µM |  |  | CN(C)c1ncccc1Cn1nc(-c2cccc(O)c2)c2c(N)ncnc21 [Compound 122] | 
 | > 1 µM |  |  | CN(C)c1ncccc1Cn1nc(-c2cc(O)cc(F)c2)c2c(N)ncnc21 [Compound 125] | 
> 1 µM | 0.1 to 1 µM |  | 0.1 to 1 µM | CC(=O)Nc1nc2ccc(-c3nn(Cc4cc5ccccc5nc4-c4ccccc4F)c4ncnc(N)c34)cc2[nH]1 [Compound 183] | 
 | > 1 µM |  |  | Nc1ncnc2c1c(-c1cc(O)cc(F)c1)nn2CCn1c(-c2ccccc2)nc2ccccc21 [Compound 126] | 
> 1 µM | > 1 µM | > 1 µM |  | CC1CCCN1c1nc2ccccc2cc1Cn1ncc2c(N)ncnc21 (stereo not drawn) [Compound 188] | 
> 1 µM | 0.1 to 1 µM | > 1 µM |  | Nc1ncc(-c2nn(Cc3cc4ccccc4nc3-c3ccccc3)c3nccc(N)c23)cn1 [Compound 160] | 
> 1 µM | > 1 µM | > 1 µM |  | N#Cc1nn(Cc2cc3ccccc3nc2-c2ccccc2F)c2ncnc(N)c12 [Compound 189] | 
> 1 µM |  | > 1 µM |  | NC1=NC=NC2C1C(c1ccc(O)nc1)=NN2Cc1cc2ccccc2nc1-c1ccccc1 (stereo not drawn) [Compound 162] | 
> 1 µM | > 1 µM | > 1 µM |  | Nc1ncnc2c1c(-c1ccnc(O)c1)nn2Cc1cc2ccccc2nc1-c1ccccc1 [Compound 178] | 
0.1 to 1 µM |  | < 0.1 µM |  | CC(=O)Nc1nc2ccc(-c3nn(Cc4cc5ccccc5nc4N4CCN(C(C)C)CC4)c4ncnc(N)c34)cc2s1 [Compound 163] | 
> 1 µM | > 1 µM | > 1 µM |  | Nc1cc(-c2nn(Cc3cc4ccccc4nc3-c3ccccc3F)c3ncnc(N)c23)ccn1 [Compound 172] | 
 | > 1 µM |  |  | Nc1ncnc2c1c(-c1cccc(O)c1)nn2Cc1cccnc1N1CCCC1 [Compound 123] | 
 | > 1 µM |  |  | Nc1ncnc2c1c(-c1cc(O)cc(F)c1)nn2Cc1cccnc1N1CCCC1 [Compound 124] | 
> 1 µM | > 1 µM | > 1 µM |  | Nc1cc(-c2nn(Cc3cc4ccccc4nc3-c3ccccc3)c3ncnc(N)c23)ccn1 [Compound 173] | 
